Experimental data as given in patent US20240066027A1 (DOMAIN THERAPEUTICS, priority 2020, published 2024).

Target: T1, human PAR-2 (hPAR-2) receptor expressed in HEK-293 T cells in an endogenous manner (Homo sapiens, UniProt P55085)
T1 construct: human PAR-2 (hPAR-2) receptor expressed in HEK-293 T cells in an endogenous manner; endogenous in cells; host or cells: HEK-293 T cells
T1 sequence (P55085 26-397): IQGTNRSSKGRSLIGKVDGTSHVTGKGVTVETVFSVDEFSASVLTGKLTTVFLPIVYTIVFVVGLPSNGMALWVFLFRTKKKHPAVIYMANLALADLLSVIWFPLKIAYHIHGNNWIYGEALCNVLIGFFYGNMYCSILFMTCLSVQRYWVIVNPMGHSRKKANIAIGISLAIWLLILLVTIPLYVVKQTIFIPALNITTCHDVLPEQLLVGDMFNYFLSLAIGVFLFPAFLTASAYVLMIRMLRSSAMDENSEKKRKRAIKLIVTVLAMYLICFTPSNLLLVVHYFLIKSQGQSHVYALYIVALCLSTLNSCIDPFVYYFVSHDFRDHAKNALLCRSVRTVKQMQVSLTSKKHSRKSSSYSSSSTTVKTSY
Assay: In vitro human PAR-2 functional antagonist activity using calcium assays (Fluo4AM, FLIPR Tetra)
Assay type: cell-based
Settings: HEK-293 T cells stimulated by an EC80 of the 2-Furoyl-LIGRLO-NH2 peptide after 10 min incubation with compound; 20 concentrations, duplicate, two independent experiments
Summary of the method: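 Fluo4AM-loaded HEK-293 T cells were exposed to compound for 10 min to read agonist effect. They were then stimulated with an EC80 of 2-Furoyl-LIGRLO-NH2 and intracellular calcium was recorded for 5 more min on FLIPR. Antagonism was scored against buffer basal and EC80 agonist-alone signals.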

Structure (SMILES)	IC50 [µM]
Cc1cc(N2CCN(C(=O)c3cc(C)c4c(-c5ccc(Cl)c(F)c5)cn(CC(C)C)c4n3)CC2)nc(C)c1C(=O)O [Example 189, 6-(4-(3-(4-chloro-3-fluorophenyl)-1-isobutyl-4-methyl-1H-pyrrolo[2,3-b]pyridine-6-carbonyl)piperazin-1-yl)-2,4-dimethylnicotinic acid]	> 10
CC(C)Cn1cc(-c2cccc(F)c2)c2ccc(C(=O)N3CCNC(=O)C3(C)C)nc21 [Example 114, 4-(3-(3-fluorophenyl)-1-isobutyl-1H-pyrrolo[2,3-b]pyridine-6-carbonyl)-3,3-dimethylpiperazin-2-one]	0.02 to 10
CCOP(=O)(OCC)c1ccc(N2CCN(C(=O)c3ccc4c(-c5ccc(Cl)c(F)c5)cn(C(C)(C)C)c4n3)C(C)(C)C2)nc1 [Example 178, diethyl (6-(4-(1-(tert-butyl)-3-(4-chloro-3-fluorophenyl)-1H-pyrrolo[2,3-b]pyridine-6-carbonyl)-3,3-dimethylpiperazin-1-yl)pyridin-3-yl)phosphonate]	0.02 to 10
COCC(COC)n1cc(-c2ccc(Cl)c(F)c2)c2ccc(C(=O)N3CCN(c4cc(C)c(C(=O)O)c(C)n4)CC3(C)C)nc21 [Example 166, 6-(4-(3-(4-chloro-3-fluorophenyl)-1-(1,3-dimethoxypropan-2-yl)-1H-pyrrolo[2,3-b]pyridine-6-carbonyl)-3,3-dimethylpiperazin-1-yl)-2,4-dimethylnicotinic acid]	< 0.02
CC1(C)CN(c2ccc(C(N)=O)cn2)CCN1C(=O)c1ccc2c(-c3ccc(Cl)c(F)c3)cn(C(C)(C)C)c2n1 [Example 138, 6-(4-(1-(tert-butyl)-3-(4-chloro-3-fluorophenyl)-1H-pyrrolo[2,3-b]pyridine-6-carbonyl)-3,3-dimethylpiperazin-1-yl)nicotinamide]	< 0.02
CC(C)(C)n1cc(-c2ccc(Cl)c(F)c2)c2ccc(C(=O)N3CCC(Cn4cc(C(=O)O)cn4)CC3)nc21 [Example 187, 1-((1-(1-(tert-butyl)-3-(4-chloro-3-fluorophenyl)-1H-pyrrolo[2,3-b]pyridine-6-carbonyl)piperidin-4-yl)methyl)-1H-pyrazole-4-carboxylic acid]	0.02 to 10
CC(C)n1cc(-c2ccc(Cl)c(F)c2)c2ccc(C(=O)N3CCNC(=O)C3(C)C)nc21 [Example 96, 4-(3-(4-chloro-3-fluorophenyl)-1-isopropyl-1H-pyrrolo[2,3-b]pyridine-6-carbonyl)-3,3-dimethylpiperazin-2-one]	< 0.02
Cc1cc(N(C)[C@H]2CCN(C(=O)c3ccc4c(-c5ccc(Cl)c(F)c5)cn(C(C)(C)C)c4n3)C2)nc(C)c1C(=O)O [Example 156, (S)-6-((1-(1-(tert-butyl)-3-(4-chloro-3-fluorophenyl)-1H-pyrrolo[2,3-b]pyridine-6-carbonyl)pyrrolidin-3-yl)(methyl)amino)-2,4-dimethylnicotinic acid]	0.02 to 10
CC(C)Cc1nn(-c2ccc(Cl)cc2Cl)c2ccc(C(=O)N3CCNC(=O)C3(C)C)nc12 [Example 73, 4-(1-(2,4-dichlorophenyl)-3-isobutyl-1H-pyrazolo[4,3-b]pyridine-5-carbonyl)-3,3-dimethylpiperazin-2-one]	0.02 to 10
CC(C)Cn1nc(-c2ccc(Cl)c(F)c2)c2ccc(C(=O)N3CCNC(=O)C3(C)C)cc21 [Example 83, 4-(3-(4-chloro-3-fluorophenyl)-1-isobutyl-1H-indazole-6-carbonyl)-3,3-dimethylpiperazin-2-one]	0.02 to 10
CCOP(=O)(O)c1ccc(N2CCN(C(=O)c3ccc4c(-c5ccc(Cl)c(F)c5)cn(C(C)(C)C)c4n3)C(C)(C)C2)nc1 [Example 195, ethyl hydrogen (6-(4-(1-(tert-butyl)-3-(4-chloro-3-fluorophenyl)-1H-pyrrolo[2,3-b]pyridine-6-carbonyl)-3,3-dimethylpiperazin-1-yl)pyridin-3-yl)phosphonate]	0.02 to 10
O=C(c1ccc2c(-c3ccc(Cl)c(F)c3)cn(CC(F)(F)F)c2n1)N1CCCOCC1 [Example 32, (3-(4-chloro-3-fluorophenyl)-1-(2,2,2-trifluoroethyl)-1H-pyrrolo[2,3-b]pyridin-6-yl)(1,4-oxazepan-4-yl)methanone]	> 10
O=C(c1ccc2c(-c3ccc(Cl)c(F)c3)cn(CC(F)(F)F)c2n1)N1CC2CCC(C1)O2 [Example 33, (8-oxa-3-azabicyclo[3.2.1]octan-3-yl)(3-(4-chloro-3-fluorophenyl)-1-(2,2,2-trifluoroethyl)-1H-pyrrolo[2,3-b]pyridin-6-yl)methanone]	> 10
Cc1cc(NC(=O)C2CCN(C(=O)c3ccc4c(-c5ccc(Cl)c(F)c5)cn(C(C)(C)C)c4n3)CC2)nc(C)c1C(=O)O [Example 123, 6-(1-(1-(tert-butyl)-3-(4-chloro-3-fluorophenyl)-1H-pyrrolo[2,3-b]pyridine-6-carbonyl)piperidine-4-carboxamido)-2,4-dimethylnicotinic acid]	0.02 to 10

Next, values leading:

IC50 [µM]	Structure (SMILES)
0.02 to 10	CC(C)(C)n1cc(-c2ccc(Cl)c(F)c2)c2ccc(C(=O)N3CCC(C(=O)O)CC3)nc21 [Example 162, 1-(1-(tert-butyl)-3-(4-chloro-3-fluorophenyl)-1H-pyrrolo[2,3-b]pyridine-6-carbonyl)piperidine-4-carboxylic acid]
< 0.02	Cc1cc(N2CCN(C(=O)c3ccc4c(-c5ccc(Cl)c(F)c5)c(C)n(CC(C)C)c4n3)C(C)(C)C2)nc(C)c1C(=O)O [Example 104, 6-(4-(3-(4-chloro-3-fluorophenyl)-1-isobutyl-2-methyl-1H-pyrrolo[2,3-b]pyridine-6-carbonyl)-3,3-dimethylpiperazin-1-yl)-2,4-dimethylnicotinic acid]
0.02 to 10	CC(C)(C)n1cc(-c2ccc(Cl)c(F)c2)c2ccc(C(=O)N3CCC4(CCC(=O)N4)CC3)nc21 [Example 202, 8-(1-(tert-butyl)-3-(4-chloro-3-fluorophenyl)-1H-pyrrolo[2,3-b]pyridine-6-carbonyl)-1,8-diazaspiro[4.5]decan-2-one]
< 0.02	COc1cccc(Cn2cc(-c3ccc(Cl)c(F)c3)c3ccc(C(=O)N4CCN(c5cc(C)c(C(=O)O)c(C)n5)CC4(C)C)nc32)n1 [Example 161, 6-(4-(3-(4-chloro-3-fluorophenyl)-1-((6-methoxypyridin-2-yl)methyl)-1H-pyrrolo[2,3-b]pyridine-6-carbonyl)-3,3-dimethylpiperazin-1-yl)-2,4-dimethylnicotinic acid]
> 10	Cc1cc2c(-c3ccc(Cl)c(F)c3)cn(CC(C)C)c2nc1C(=O)N1CCN(c2cc(C)c(C(=O)O)c(C)n2)CC1 [Example 186, 6-(4-(3-(4-chloro-3-fluorophenyl)-1-isobutyl-5-methyl-1H-pyrrolo[2,3-b]pyridine-6-carbonyl)piperazin-1-yl)-2,4-dimethylnicotinic acid]
< 0.02	CCn1cc(-c2ccc(Cl)c(F)c2)c2ccc(C(=O)N3CCN(c4cc(C)c(C(=O)O)c(C)n4)CC3(C)C)nc21 [Example 129, 6-(4-(3-(4-chloro-3-fluorophenyl)-1-ethyl-1H-pyrrolo[2,3-b]pyridine-6-carbonyl)-3,3-dimethylpiperazin-1-yl)-2,4-dimethylnicotinic acid]
0.02 to 10	CC(C)Cn1cc(-c2cccc(C#N)c2)c2ccc(C(=O)N3CCNC(=O)C3(C)C)nc21 [Example 117, 3-(6-(2,2-dimethyl-3-oxopiperazine-1-carbonyl)-1-isobutyl-1H-pyrrolo[2,3-b]pyridin-3-yl)benzonitrile]
< 0.02	Cc1cc(N2CCN(C(=O)c3ccc4c(-c5ccc(F)c(F)c5)cn(CC(C)C)c4n3)C(C)(C)C2)nc(C)c1C(=O)O [Example 141, 6-(4-(3-(3,4-difluorophenyl)-1-isobutyl-1H-pyrrolo[2,3-b]pyridine-6-carbonyl)-3,3-dimethylpiperazin-1-yl)-2,4-dimethylnicotinic acid]
0.02 to 10	Cn1cc(-c2ccc(Cl)c(F)c2)c2ccc(C(=O)N3CCNC(=O)C3(C)C)nc21 [Example 34, 4-(3-(4-chloro-3-fluorophenyl)-1-methyl-1H-pyrrolo[2,3-b]pyridine-6-carbonyl)-3,3-dimethylpiperazin-2-one]
> 10	Cc1cc(N2CCN(C(=O)c3ccc4c(-c5ccc(Cl)c(F)c5)cn(CC(=O)O)c4n3)C(C)(C)C2)nc(C)c1C(=O)O [Example 133, 6-(4-(1-(carboxymethyl)-3-(4-chloro-3-fluorophenyl)-1H-pyrrolo[2,3-b]pyridine-6-carbonyl)-3,3-dimethylpiperazin-1-yl)-2,4-dimethylnicotinic acid]
< 0.02	Cc1cc(N2CCN(C(=O)c3ccc4c(-c5ccc(C(F)(F)F)c(F)c5)cn(CC(C)C)c4n3)C(C)(C)C2)nc(C)c1C(=O)O [Example 144, 6-(4-(3-(3-fluoro-4-(trifluoromethyl)phenyl)-1-isobutyl-1H-pyrrolo[2,3-b]pyridine-6-carbonyl)-3,3-dimethylpiperazin-1-yl)-2,4-dimethylnicotinic acid]
0.02 to 10	CC(C)Cn1cc(-c2ccccc2F)c2ccc(C(=O)N3CCNC(=O)C3(C)C)nc21 [Example 113, 4-(3-(2-fluorophenyl)-1-isobutyl-1H-pyrrolo[2,3-b]pyridine-6-carbonyl)-3,3-dimethylpiperazin-2-one]
